The record followed here is US6538000B1, “Tricyclic dihydropyrimidine potassium channel openers” (Abbott Laboratories, priority 1999, dated 2003).

The term melting point denotes the temperature of the solid-liquid transition. Usually EC50 stands for the concentration needed to bring the measured effect to its halfway point. Low values mean a more potent agent, high ones a less potent agent.

Data set [1] deals with potassium channels (Sus scrofa, UniProt F1SR11). Description: Functional potassium channel opening activity in isolated bladder strips (field-stimulated twitch). On the set-up: species or system Landrace pig. Conditions: for Emax: pig, read-out: Efficacy (% P1075), Landrace pig bladder strips, maximal efficacy relative to P1075. Here is the method: Compounds of the present invention were evaluated for functional potassium channel opening activity using tissue strips obtained from Landrace pig bladders.
Landrace pig bladders were obtained from female Landrace pigs of 9-30 kg. Landrace pigs were euthanized with an intraperitoneal injection of pentobarbital solution, Somlethal®, J. A. Webster Inc., Sterling Mass. The entire bladder was removed and immediately placed into Krebs Ringer bicarbonate solution (composition, mM: NaCl, 120; NaHCO3, 20; dextrose, 11; KCl, 4.7; CaCl2, 2.5; MgSO4, 1.5; KH2PO4, 1.2; K2EDTA, 0.01, equilibrated with 5% CO2/95% O2 pH 7.4 at 37° C.). Propranolol (0.004 mM) was included in all of the assays to block β-adrenoceptors. The trigonal and dome portions were discarded. Strips 3-5 mm wide and 20 mm long were prepared from the remaining tissue cut in a circular fashion. The mucosal layer was removed. One end was fixed to a stationary glass rod and the other to a Grass FT03 transducer at a basal preload of 1.0 gram. Two parallel platinum electrodes were included in the stationary glass rod to provide field stimulation of 0.05 Hz, 0.5 milli-seconds at 20 volts. This low frequency stimulation produced a stable twitch response of 100-500 centigrams. Tissues were allowed to equilibrate for at least 60 minutes and primed with 80 mM KCl. A control concentration response curve (cumulative) was generated for each tissue using the potassium channel opener P1075 as the control agonist. […] After a 60 minute rinsing period, a concentration response curve (cumulative) was generated for the test agonist in the same fashion as that used for the control agonist P1075. The maximal efficacy of each compounds (expressed as % relative to P1075) is reported. […] Agonist potencies were also expressed as an index relative to P1075. The index was calculated by dividing the ED50 for P1075 by the ED50 for the test agonist in a given tissue. […]

Data set [2] addresses potassium channels (Cavia porcellus, UniProt A0A286XYR9). As to the kind of experiment: Membrane hyperpolarization (MHP) assay, DiBAC(4)3 FLIPR, primary cultured guinea-pig urinary bladder (GPB) cells. In kind it is cell-based. How it is done:
Compounds were evaluated for potassium channel opening activity using primary cultured guinea-pig urinary bladder (GPB) cells.
For the preparation of urinary bladder smooth muscle cells, urinary bladders were removed from male guinea-pigs (Hartley, Charles River, Wilmington, Mass.) weighing 300-400 g and placed in ice-cold Ca^2+-free Krebs solution (Composition, mM: KCl, 2.7; KH2PO4, 1.5; NaCl, 75; Na2HPO4, 9.6; Na2HPO4.7H2O, 8; MgSO4, 2; glucose, 5; HEPES, 10; pH 7.4). Cells were isolated by enzymatic dissociation as previously described with minor modifications in (Klockner, U. and Isenberg, G., Pflugers Arch. 1985, 405, 329-339), hereby incorporated by reference. […]
Functional activity at potassium channels was measured by evaluating changes in membrane potential using the bis-oxonol dye DiBAC(4)3 (Molecular Probes) in a 96-well cell-based kinetic assay system, Fluorescent Imaging Plate Reader (FLIPR) (K. S. Schroeder et al., J. Biomed. Screen., v. 1 pp. 75-81 (1996)), hereby incorporated by reference. […] With increasing membrane potential (for example, K^+ depolarization), the probe further partitions into the cell; this is measured as an increase in fluorescence due to dye interaction with intracellular lipids and proteins. Conversely, decreasing membrane potential (hyperpolarization by potassium channel openers) evokes a decrease in fluorescence. […]

Chain of potassium channels (Cavia porcellus, UniProt A0A286XYR9) (A0A286XYR9 1-1546): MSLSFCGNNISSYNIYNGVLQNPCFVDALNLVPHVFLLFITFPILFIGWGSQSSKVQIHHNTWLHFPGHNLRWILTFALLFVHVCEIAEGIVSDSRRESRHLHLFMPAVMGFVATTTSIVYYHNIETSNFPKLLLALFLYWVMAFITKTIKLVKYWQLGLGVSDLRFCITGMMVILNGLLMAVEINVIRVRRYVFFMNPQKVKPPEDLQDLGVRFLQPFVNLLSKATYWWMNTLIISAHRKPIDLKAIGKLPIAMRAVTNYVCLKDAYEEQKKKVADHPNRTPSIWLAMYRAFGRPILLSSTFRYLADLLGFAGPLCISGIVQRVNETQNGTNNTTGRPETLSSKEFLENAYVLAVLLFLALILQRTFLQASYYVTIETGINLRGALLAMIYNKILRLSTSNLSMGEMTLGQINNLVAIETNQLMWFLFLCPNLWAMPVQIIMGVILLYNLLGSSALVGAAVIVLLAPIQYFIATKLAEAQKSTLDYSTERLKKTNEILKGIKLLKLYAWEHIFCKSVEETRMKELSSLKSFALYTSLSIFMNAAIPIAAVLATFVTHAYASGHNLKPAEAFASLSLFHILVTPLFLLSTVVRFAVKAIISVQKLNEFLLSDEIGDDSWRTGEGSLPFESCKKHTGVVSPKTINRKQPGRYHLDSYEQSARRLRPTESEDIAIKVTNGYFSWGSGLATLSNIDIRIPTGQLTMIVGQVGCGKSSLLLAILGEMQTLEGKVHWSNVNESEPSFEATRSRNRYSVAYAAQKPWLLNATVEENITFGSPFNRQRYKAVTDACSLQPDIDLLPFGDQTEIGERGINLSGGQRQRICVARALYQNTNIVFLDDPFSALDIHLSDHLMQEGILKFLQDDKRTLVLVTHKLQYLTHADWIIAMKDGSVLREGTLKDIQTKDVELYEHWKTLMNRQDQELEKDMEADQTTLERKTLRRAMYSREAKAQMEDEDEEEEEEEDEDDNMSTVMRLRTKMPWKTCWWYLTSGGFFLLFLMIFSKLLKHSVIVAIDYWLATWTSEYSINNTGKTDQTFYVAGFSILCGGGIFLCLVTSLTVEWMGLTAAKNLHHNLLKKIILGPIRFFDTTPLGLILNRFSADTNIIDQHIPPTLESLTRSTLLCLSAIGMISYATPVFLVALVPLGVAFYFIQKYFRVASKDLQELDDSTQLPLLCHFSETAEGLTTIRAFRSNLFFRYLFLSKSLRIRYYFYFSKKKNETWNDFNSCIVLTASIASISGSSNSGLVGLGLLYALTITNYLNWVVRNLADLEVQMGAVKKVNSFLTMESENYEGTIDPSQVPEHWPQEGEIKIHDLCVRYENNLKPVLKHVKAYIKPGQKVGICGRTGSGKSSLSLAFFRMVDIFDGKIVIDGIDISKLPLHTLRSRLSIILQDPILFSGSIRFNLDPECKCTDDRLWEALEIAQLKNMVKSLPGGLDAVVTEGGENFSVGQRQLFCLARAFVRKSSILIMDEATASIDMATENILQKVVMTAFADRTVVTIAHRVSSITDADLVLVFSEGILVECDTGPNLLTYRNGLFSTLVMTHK
Chain of potassium channels (Cavia porcellus, UniProt A0A286XYR9) (Q9JHJ9 whole entry partner): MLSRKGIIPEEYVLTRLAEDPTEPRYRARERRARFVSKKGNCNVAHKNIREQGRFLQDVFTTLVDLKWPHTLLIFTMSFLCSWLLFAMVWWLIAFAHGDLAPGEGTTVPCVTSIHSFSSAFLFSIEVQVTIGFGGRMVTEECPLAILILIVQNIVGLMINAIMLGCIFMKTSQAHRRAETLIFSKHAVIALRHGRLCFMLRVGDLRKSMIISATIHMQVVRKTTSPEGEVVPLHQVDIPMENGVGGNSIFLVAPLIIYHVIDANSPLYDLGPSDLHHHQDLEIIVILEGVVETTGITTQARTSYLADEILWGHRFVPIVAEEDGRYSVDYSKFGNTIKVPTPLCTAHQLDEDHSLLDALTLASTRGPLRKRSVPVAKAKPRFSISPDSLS

In the case of `O=C1CCCC2=C1C(c1ccc(F)c(Br)c1)n1nccc1N2` (single isomer, unassigned; (-)) [Example 15, (−) 9-(3-Bromo-4-fluorophenyl)-5,6,7,9-tetrahydropyrazolo[5,1-b]quinazolin-8(4H)-one], the Emax at potassium channels [1] is 100%. On the same count and under the same terms, under `O=C1CCCC2=C1C(c1ccc(Br)c(F)c1)n1nccc1N2` (stereo not drawn) [Example 1, 9-(4-Bromo-3-fluorophenyl)-5,6,7,9-tetrahydropyrazolo[5,1-b]quinazolin-8(4H)-one] stands 96%. `O=C1CSCC2=C1C(c1ccc(F)c(Br)c1)n1nccc1N2` (stereo not drawn) [Example 2, 9-(3-Bromo-4-fluorophenyl)-5,9-dihydro-4H-pyrazolo[1,5-a]thiopyrano[3,4-d]pyrimidin-8(7H)-one] had a melting point of 160 to 163 °C. `O=C1CCCC2=C1C(c1ccc(Cl)c(Cl)c1)n1ncc(Br)c1N2` (stereo not drawn) [Example 48, 3-Bromo-9-(3,4-dichlorophenyl)-5,6,7,9-tetrahydropyrazolo[5.1-b]quinazolin-8(4H)-one]: the “Maximal Response (% P1075)” value on potassium channels [2] (maximal steady-state hyperpolarization in GPB cells, normalized to 10 μM P1075 = 100%) was found to be 113 % P1075. Moreover, the EC50 on potassium channels [2] (membrane hyperpolarization in GPB cells, concentration that elicits 50% of the maximal response for the test sample) was 33 nM. With `CCC(C)(C)NC(=NC#N)Nc1cccnc1` [Example P1075, N″-cyano-N-(tert-pentyl)-N′-(3-pyridinyl)guanidine, reference compound], the “effect on stimulated twitch / stimulated contractions of the bladder” value on potassium channels [1] (field stimulation 0.05 Hz, 0.5 ms, 20 volts, P1075 10^−9 to 10^−5 M) is on record as “completely eliminated the stimulated twitch”.
